From patent US6730704B2, “1-(aryloxy)propionoyl-2-arylsulfonyl hydrazines, process for preparation thereof and use thereof as hypoglycemic agents” (Council of Scientific & Industrial Research, priority 2002, dated 2004) come the findings set out here.

For experiment [1], the system named is normoglycemic rats. The experiment is described as follows: Hypoglycemic activity in normal rats. Particulars: fasted normal Wistar rats; Glibenclamide 5 mg/kg per oral; reduction vs basal glucose, measured 1-6 hr, time of value not stated. The experiment is classed as in vivo. As to the method:
Hypoglycemic Activity in Normal Rats:
Wistar rats of either sex weighing 150-180 gms were fasted overnight and divided into control, standard and test groups each consisting of 6 rats. The standard drug, Glibenclamide, was administered in the dose of 5 mg/kg per oral to the rats. All test compounds were administered in the dose of 200 mg/kg per oral to the test groups. Both standard and test drugs were administered as 1% gum acacia suspension. Control group received vehicle only. Blood glucose levels were measured before drugs administration at 0 hr and at 1 hr, 2 hr, 4 hr and 6 hr after drugs administration. Percent reduction of blood glucose levels at different time intervals was calculated with reference to basal glucose levels. All the blood glucose estimations were done using GOD/POD method and were analyzed using Auto Blood Analyzer (Technicon RA-1000, Bayer Diagnostics, Ireland). The standard drug (Glibenclamide) has shown a percent inhibition of glucose 65.1 and all the test compounds (1 to 9 examples) have shown percent inhibition in range of 48.5 to 63.2 (FIG. 1)

The test system of experiment [2] is Streptozotocin induced diabetic rats. The experiment is described as follows: Hypoglycemic activity in Streptozotocin induced diabetic rats. To be noted: Streptozotocin (50 mg/kg i.v.) diabetic Wistar rats; Glibenclamide 1 mg/kg daily for 14 days; vs reading before drug administration. The experiment is classed as in vivo. The method, then: Hypoglycemic Activity in Streptozotocin Induced Diabetic Rats:
Wistar rats of either sex weighting 150-180 gms were used in this study and were divided into control, standard and test groups each consisting of 6 rats. Basal glucose levels were taken for all rats. Diabetes was induced by administering Streptozotocin in the dose of 50 mg/kg intravenously to the rats in all the groups. After a period of 48 hrs glucose levels were again measured and rats that have shown glucose levels of 400±20 mg/dl were selected. Glibenclamide (1 mg/kg) and the test compounds (50 mg/kg) were administered as 1% gum acacia suspension daily for a period of 14 days. At the end of 14 days after the last dose, blood glucose levels were again measured and the percent reduction in blood glucose was measured for all the rats in all the groups with respect to the initial reading before drug administration.

As for `COc1ccc(Cl)cc1C(=O)NCCc1ccc(S(=O)(=O)NC(=O)NC2CCCCC2)cc1` [Glibenclamide], the “percent inhibition of glucose” value in experiment [1] worked out at 65.1%. Besides, the “hypoglycemic activity expressed as percent inhibition of blood glucose levels” value in experiment [2] is 68.2%.
